Converted amounts (≈) assume the structure as drawn.
Columns and labels:
[1] = target: T1, PBP3 from Pseudomonas aeruginosa (PAO1) (Pseudomonas aeruginosa, UniProt G3XD46); assay: Bocillin-FL fluorescence polarization competition binding, P. aeruginosa PBP3; details: Binding affinity to P. aeruginosa PBP3; fluorescence polarization competition binding assay using Bocillin-FL; read-out: P. aeruginosa PBP3 Potency
T1 construct: made in house
Outline: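 Purified PBP was preincubated with inhibitor (E. coli PBP3 1.5 μM, 30 min; P. aeruginosa PBP3 0.75 μM, A. baumannii PBP3 0.2 μM and PBP1a 1 μM, 15 min), then Bocillin-FL (0.1 μM; 0.05 μM for PBP1a) added and FP read up to 60 min. EC50 = 50% loss of bound probe.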

E. coli AG100 = assay: microbe, parasite or virus in culture; type: cell-based; details: Escherichia coli, AG100, read-out: MIC E. coli AG100
E. coli 901C = assay: microbe, parasite or virus in culture; type: cell-based; details: Escherichia coli, read-out: MIC E. coli 901C
E. coli AG100A = assay: Broth microdilution MIC in CAMHB; type: cell-based; details: Escherichia coli, read-out: MIC E. coli AG100A
K. pneumoniae 848844 = assay: microbe, parasite or virus in culture; type: cell-based; details: Klebsiella pneumoniae, 848844, read-out: MIC K. pneumoniae 848844
K. pneumoniae SI-117 = assay: microbe, parasite or virus in culture; type: cell-based; details: Klebsiella pneumoniae, SI117, read-out: MIC K. pneumoniae SI-117
A. baumannii ATCC 19606 = assay: microbe, parasite or virus in culture; type: cell-based; details: Acinetobacter baumannii, ATCC19606, read-out: MIC, A. baumannii ATCC 19606
P. aeruginosa ATCC 35151 = assay: microbe, parasite or virus in culture; type: cell-based; details: Pseudomonas aeruginosa, ATCC35151, read-out: MIC P. aeruginosa ATCC 35151
[2] = test system: P. aeruginosa (ΔmexAB-oprM); assay: Broth microdilution MIC in CAMHB; type: cell-based; details: Pseudomonas aeruginosa; read-out: MIC P. aeruginosa ΔmexAB-oprM
[3] = test system: N. gonorrhoeae ATCC 49226; assay: Liquid broth MIC in Fastidious broth; details: Neisseria gonorrhoeae, ATCC49226, read-out: Minimum Inhibitory Concentration (MIC), N. gonorrhoeae ATCC 49226
Method: Additional antibacterial testing of the series was performed in 8 reference strains of N. gonorrhoeae (ATCC 49226, FA1090, MS 11, WHO G, WHO L, WHO M, WHO K, WHO X, WHO Z, WHO Q, CDC-0197). ATCC 49226, FA1090, MS11, WHO G, WHO L, and WHO M produce wild type or wild-type like PBP2. WHO K, WHO X, WHO Z, WHO Q, and CDC-0197 produce mosaic PBP2. Liquid broth-based assays were used for antibacterial testing of PBP inhibitors in Neisseria gonorrhoeae. Briefly, cryo-preserved bacterial cultures of clinical strains were streaked for isolation on Chocolate Agar (72 g/L (2×) GC Agar Base (BD #228950) and 2% (2×) Hemoglobin was autoclaved at 121° C. for 20 minutes to sterilize. Once cooled to ˜50° C. the 2×GC Agar Base and 2× Hemoglobin solutions are combined and 1% IsoVitaleX Enrichment (BD #211876) was added to the solution). Strains were incubated at 36° C. and 5% CO2 to allow growth of colonies, 24 hours before inoculum preparation. 2-fold serial dilutions of test compounds were conducted in a 96 well plate with a final volume of 75 μL per well at 2-fold the final desired concentration in Fastidious broth (Remel #R07664). For preparation of assay inoculum, a direct suspension was prepared by aseptically swabbing 10-15 colonies from agar plates into culture tubes containing 2 mL of fresh sterile saline. After the dilution plates were set up, direct suspensions were then diluted in a cuvette containing sterile saline and the optical density was measured at 600 nm. Inocula were diluted such that 75 μL of this culture in Fastidious broth results in a starting bacterial concentration of 5×10^5 CFU/mL when added to the dilution plates. The plates were incubated for ˜24 hours at 36° C. and 5% CO2.

N. gonorrhoeae FA1090 = assay: Liquid broth MIC in Fastidious broth; details: Neisseria gonorrhoeae, FA1090, read-out: Minimum Inhibitory Concentration (MIC), N. gonorrhoeae FA 1090
N. gonorrhoeae WHO L = assay: Liquid broth MIC in Fastidious broth; details: Neisseria gonorrhoeae, read-out: Minimum Inhibitory Concentration (MIC), N. gonorrhoeae WHO L
N. gonorrhoeae WHO M = assay: Liquid broth MIC in Fastidious broth; details: Neisseria gonorrhoeae, read-out: Minimum Inhibitory Concentration (MIC), N. gonorrhoeae WHO M
N. gonorrhoeae WHO X = assay: Liquid broth MIC in Fastidious broth; details: Neisseria gonorrhoeae, read-out: Minimum Inhibitory Concentration (MIC), N. gonorrhoeae WHO X
N. gonorrhoeae WHO Z = assay: Liquid broth MIC in Fastidious broth; details: Neisseria gonorrhoeae, read-out: Minimum Inhibitory Concentration (MIC), N. gonorrhoeae WHO Z
N. gonorrhoeae WHO Q = assay: Liquid broth MIC in Fastidious broth; details: Neisseria gonorrhoeae, read-out: Minimum Inhibitory Concentration (MIC), N. gonorrhoeae WHO Q

T1 sequence (G3XD46 whole entry): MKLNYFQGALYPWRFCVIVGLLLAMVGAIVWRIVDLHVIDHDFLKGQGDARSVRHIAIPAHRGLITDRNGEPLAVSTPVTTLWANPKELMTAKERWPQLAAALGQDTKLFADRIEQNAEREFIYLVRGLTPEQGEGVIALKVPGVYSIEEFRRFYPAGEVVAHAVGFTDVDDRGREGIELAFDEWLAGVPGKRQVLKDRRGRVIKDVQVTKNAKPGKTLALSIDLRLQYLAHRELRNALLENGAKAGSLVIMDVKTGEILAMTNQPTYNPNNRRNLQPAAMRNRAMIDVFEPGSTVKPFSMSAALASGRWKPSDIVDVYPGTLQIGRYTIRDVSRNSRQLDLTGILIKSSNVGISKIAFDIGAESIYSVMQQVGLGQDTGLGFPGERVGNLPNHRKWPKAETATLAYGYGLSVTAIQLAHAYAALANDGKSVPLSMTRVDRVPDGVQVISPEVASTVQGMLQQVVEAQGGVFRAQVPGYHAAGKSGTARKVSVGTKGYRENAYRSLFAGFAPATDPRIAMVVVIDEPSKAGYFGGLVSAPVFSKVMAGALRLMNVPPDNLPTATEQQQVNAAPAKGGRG

| Compound | IC50 [1] [µM] | MIC (E. coli AG100) [µg/mL] | MIC (E. coli 901C) [µg/mL] | MIC (E. coli AG100A) [µg/mL] | MIC (K. pneumoniae 848844) [µg/mL] | MIC (K. pneumoniae SI-117) [µg/mL] | MIC (A. baumannii ATCC 19606) [µg/mL] | MIC (P. aeruginosa ATCC 35151) [µg/mL] | MIC [2] [µg/mL] | MIC [3] [µg/mL] | MIC (N. gonorrhoeae FA1090) [µg/mL] | MIC (N. gonorrhoeae WHO L) [µg/mL] | MIC (N. gonorrhoeae WHO M) [µg/mL] | MIC (N. gonorrhoeae WHO X) [µg/mL] | MIC (N. gonorrhoeae WHO Z) [µg/mL] | MIC (N. gonorrhoeae WHO Q) [µg/mL] |
| --- | --- | --- | --- | --- | --- | --- | --- | --- | --- | --- | --- | --- | --- | --- | --- | --- |
| O=C(O)c1cccc2c1OB(O)[C@@H](NC(=O)[C@H](NC(=O)c1c[nH]ccc1=O)c1ccc(P(=O)(O)O)cc1)C2 [Example 175, (R)-2-hydroxy-3-((R)-2-(4-oxo-1,4-dihydropyridine-3-carboxamido)-2-(4-phosphonophenyl)acetamido)-3,4-dihydro-2H-benzo[e][1,2]oxaborinine-8-carboxylic acid] | < 10 | 32 to 64 (≈ 59.1 to 118 µM) | 2 to 4 (≈ 3.7 to 7.39 µM) | 32 to 64 (≈ 59.1 to 118 µM) | 32 to 64 (≈ 59.1 to 118 µM) | 32 to 64 (≈ 59.1 to 118 µM) | > 128 | < 1 | 8 to 16 (≈ 14.8 to 29.6 µM) | 1 to 2 (≈ 1.85 to 3.7 µM) | < 1 | 16 to 32 (≈ 29.6 to 59.1 µM) | < 1 | 16 to 32 (≈ 29.6 to 59.1 µM) | 4 to 8 (≈ 7.39 to 14.8 µM) | 4 to 8 (≈ 7.39 to 14.8 µM) |
| O=C(O)c1cccc2c1OB(O)[C@@H](NC(=O)C(NC(=O)c1cnc[nH]c1=O)c1ccc(P(=O)(O)O)cc1)C2 (stereo partly drawn) [Example 176, (3R)-2-hydroxy-3-(2-(6-oxo-1,6-dihydropyrimidine-5-carboxamido)-2-(4-phosphonophenyl)acetamido)-3,4-dihydro-2H-benzo[e][1,2]oxaborinine-8-carboxylic acid] | < 10 | > 128 | 8 to 16 (≈ 14.8 to 29.5 µM) | > 128 | > 128 | > 128 | > 128 | 2 to 4 (≈ 3.69 to 7.38 µM) | 32 to 64 (≈ 59 to 118 µM) | 4 to 8 (≈ 7.38 to 14.8 µM) | 1 to 2 (≈ 1.84 to 3.69 µM) | 16 to 32 (≈ 29.5 to 59 µM) | 1 to 2 (≈ 1.84 to 3.69 µM) | 16 to 32 (≈ 29.5 to 59 µM) | 16 to 32 (≈ 29.5 to 59 µM) | 16 to 32 (≈ 29.5 to 59 µM) |
| N#Cc1ccnc(C(=O)NC(C(=O)N[C@H]2Cc3cccc(C(=O)O)c3OB2O)c2ccc(P(=O)(O)O)cc2)c1 (stereo partly drawn) [Example 179, (3R)-3-(2-(4-cyanopicolinamido)-2-(4-phosphonophenyl)acetamido)-2-hydroxy-3,4-dihydro-2H-benzo[e][1,2]oxaborinine-8-carboxylic acid] | < 10 | > 128 | 8 to 16 (≈ 14.5 to 29.1 µM) | > 128 | > 128 | > 128 | > 128 | 2 to 4 (≈ 3.63 to 7.27 µM) | > 128 | 16 to 32 (≈ 29.1 to 58.2 µM) | 1 to 2 (≈ 1.82 to 3.63 µM) | 16 to 32 (≈ 29.1 to 58.2 µM) | 4 to 8 (≈ 7.27 to 14.5 µM) | 16 to 32 (≈ 29.1 to 58.2 µM) | 16 to 32 (≈ 29.1 to 58.2 µM) | 16 to 32 (≈ 29.1 to 58.2 µM) |
| N#Cc1cccc(C(=O)N[C@@H](C(=O)N[C@H]2Cc3cccc(C(=O)O)c3OB2O)c2ccc(P(=O)(O)O)cc2)n1 [Example 180, (R)-3-((R)-2-(6-cyanopicolinamido)-2-(4-phosphonophenyl)acetamido)-2-hydroxy-3,4-dihydro-2H-benzo[e][1,2]oxaborinine-8-carboxylic acid] | < 10 | > 128 | < 1 | 8 to 16 (≈ 14.5 to 29.1 µM) | > 128 | > 128 | > 128 | 2 to 4 (≈ 3.63 to 7.27 µM) | 32 to 64 (≈ 58.2 to 116 µM) | < 1 | < 1 | 4 to 8 (≈ 7.27 to 14.5 µM) | < 1 | 4 to 8 (≈ 7.27 to 14.5 µM) | < 1 | 1 to 2 (≈ 1.82 to 3.63 µM) |
| O=C(O)c1cccc2c1OB(O)[C@@H](NC(=O)C(NC(=O)c1ncccc1Cl)c1ccc(P(=O)(O)O)cc1)C2 (stereo partly drawn) [Example 183, (3R)-3-(2-(3-chloropicolinamido)-2-(4-phosphonophenyl)acetamido)-2-hydroxy-3,4-dihydro-2H-benzo[e][1,2]oxaborinine-8-carboxylic acid] | < 10 | > 128 | 8 to 16 (≈ 14.3 to 28.6 µM) | > 128 | > 128 | > 128 | > 128 | 8 to 16 (≈ 14.3 to 28.6 µM) | > 128 | 4 to 8 (≈ 7.15 to 14.3 µM) | 1 to 2 (≈ 1.79 to 3.57 µM) | 16 to 32 (≈ 28.6 to 57.2 µM) | 1 to 2 (≈ 1.79 to 3.57 µM) | 16 to 32 (≈ 28.6 to 57.2 µM) | 16 to 32 (≈ 28.6 to 57.2 µM) | 16 to 32 (≈ 28.6 to 57.2 µM) |
| O=C(NC(C(=O)N[C@H]1Cc2cccc(C(=O)O)c2OB1O)c1ccc(P(=O)(O)O)cc1)c1ccc(Cl)cn1 (stereo partly drawn) [Example 184, (3R)-3-(2-(5-chloropicolinamido)-2-(4-phosphonophenyl)acetamido)-2-hydroxy-3,4-dihydro-2H-benzo[e][1,2]oxaborinine-8-carboxylic acid] | < 10 | > 128 | < 1 | 32 to 64 (≈ 57.2 to 114 µM) | > 128 | > 128 | > 128 | 2 to 4 (≈ 3.57 to 7.15 µM) | > 128 | < 1 | < 1 | 4 to 8 (≈ 7.15 to 14.3 µM) | < 1 | 4 to 8 (≈ 7.15 to 14.3 µM) | < 1 | 1 to 2 (≈ 1.79 to 3.57 µM) |
| NC(=O)c1ccc(C(=O)NC(C(=O)N[C@H]2Cc3cccc(C(=O)O)c3OB2O)c2ccc(P(=O)(O)O)cc2)nc1 (stereo partly drawn) [Example 188, (3R)-3-(2-(5-carbamoylpicolinamido)-2-(4-phosphonophenyl)acetamido)-2-hydroxy-3,4-dihydro-2H-benzo[e][1,2]oxaborinine-8-carboxylic acid] | < 10 | > 128 | < 1 | > 128 | > 128 | > 128 | > 128 | 8 to 16 (≈ 14.1 to 28.2 µM) | 32 to 64 (≈ 56.3 to 113 µM) | < 1 | < 1 | 4 to 8 (≈ 7.04 to 14.1 µM) | < 1 | 4 to 8 (≈ 7.04 to 14.1 µM) | 1 to 2 (≈ 1.76 to 3.52 µM) | 1 to 2 (≈ 1.76 to 3.52 µM) |
| CCN1CCN(C(=O)NC(C(=O)N[C@H]2Cc3cccc(C(=O)O)c3OB2O)c2ccc(S(=O)(=O)O)cc2)C(=O)C1=O (stereo partly drawn) [Example 189, (3R)-3-(2-(4-ethyl-2,3-dioxopiperazine-1-carboxamido)-2-(4-sulfophenyl)acetamido)-2-hydroxy-3,4-dihydro-2H-benzo[e][1,2]oxaborinine-8-carboxylic acid] | < 10 | 32 to 64 (≈ 54.4 to 109 µM) | < 1 | 8 to 16 (≈ 13.6 to 27.2 µM) | > 128 | > 128 | > 128 | < 1 | 8 to 16 (≈ 13.6 to 27.2 µM) | < 1 | < 1 | 4 to 8 (≈ 6.8 to 13.6 µM) | < 1 | 4 to 8 (≈ 6.8 to 13.6 µM) | 1 to 2 (≈ 1.7 to 3.4 µM) | 1 to 2 (≈ 1.7 to 3.4 µM) |

— patent US20240270762A1, “PENICILLIN-BINDING PROTEIN INHIBITORS” (priority 2021, published 2024)
